Assay results from patent US20260284003A1, “COMPOSITIONS AND METHOD FOR MANAGEMENT OF PAIN AND ALLERGY” (priority 2023, published 2026).

Tests used:
[1] = test system: COX-2; experiment: COX-2 expression in spinal tissue lysate (Western blotting); type: in vivo, C57BL/6 mice; details: normalized to GAPDH, cisplatin = 1, control 0.7, BCP 10 mg, PEA 5 mg, BPE 10 mg, BPB 15 mg, Ibuprofen 30 mg, oral 21 days
Procedure: (§1) In the current study, TRPV1 and COX-2 expression was assessed in the spinal tissue lysate of the animals, using Western blotting. Briefly, proteins from the spinal tissue were separated in a 10% SDS-PAGE and transferred to PVDF membrane. The TRPV1 and COX-2 expressions were probed using specific monoclonal antibodies (ABclonal, Dusseldorf, Germany). GAPDH was used as housekeeping gene control. The expression of TRPV1 and COX-2 were normalized to that of GAPDH, and fold change was calculated w.r.t cisplatin group.

[2] = test system: tumor necrosis factor-α (TNF-α); experiment: TNF-α in spinal fluids, cisplatin induced peripheral neuropathy (ELISA); details: cisplatin mice, oral 21 days, FIG. 5
Procedure: (§2) As an illustrative example to evaluate the effect of the composition on reducing pain, in-vivo experiments were carried out in Cisplatin induced peripheral neuropathy animal models.
(§3) In the present study, these were estimated in the spinal fluids of the animals using ELISA kits as per the manufacturer's instruction (R&D Systems, Minneapolis, Minnesota, USA).

[3] = test system: inducible nitric oxide; experiment: Inhibition of inducible nitric oxide (Griess reaction); details: macrophages, nitrite in cell supernatant; FIG. 2A-2C
Procedure: (§4) Mouse macrophage cell line (RAW264.7) was purchased from National Center for Cell Science (NCCS, Pune, India) and maintained as a monolayer culture in Dulbecco's modified minimal essential medium (DMEM, Life Technologies, CA, USA) supplemented with 10% (v/v) fetal bovine serum (FBS; GIBCO/Invitrogen, Carlsbad, CA) at 37° C. in a humidified 5% CO2 incubator.
The Nitrite estimation was carried out using the Griess reaction. To the 50 μL of cell supernatant, Griess reagent I (50 μL) and Griess reagent II (50 μL) were added and incubated for 10 min at room temperature and absorbance were read at 540 nm using Microplate reader.

[4] = test system: Cisplatin induced peripheral neuropathy animal models; experiment: Tail-flick test, cisplatin induced peripheral neuropathy; type: in vivo, C57BL/6 mice; details: tail withdrawal latency; BCP 10 mg, PEA 5 mg, BPE 10 mg, BPB 15 mg, Ibuprofen 30 mg
Procedure: This is a test of acute nociception in which a high-intensity thermal stimulus is directed to the tail of a mouse or a rat. The time from onset of stimulation to a rapid flick/withdrawal of the tail from heat source is recorded. Thermal (radiant heat) sensation of animal tail part was assessed by observation of tail flick response as per D'Aemour and Smith method with minor modifications (Hargreaves et al. A new and sensitive method for measuring thermal nociception in cutaneous hyperalgesia. Pain 32 (1988) 77-88). The one-centimeter distance from the tail terminal region was located on the slit of the plantar device. Thermal sensitivity of mice tail was recorded as tail withdrawal latency. Brisk withdrawal of tail from the plantar device was considered as a progression of neuropathic pain. Cut-off stimuli, i.e., 15 s was maintained to avoid potential tissue damage. Mice were tested after 24 h of treatment injections for the drug-response evaluation.

[5] = test system: Cisplatin induced peripheral neuropathy animal models; experiment: Hot plate test, cisplatin induced peripheral neuropathy; type: in vivo, C57BL/6 mice; details: reaction latency, 52° C.; BCP 10 mg, PEA 5 mg, BPE 10 mg, BPB 15 mg, Ibuprofen 30 mg
Procedure: Animals are placed on the hot plate one at a time. Latency to respond to the heat stimulus is measured by the amount of time it takes for the animal to lick one of its paws. Animals were placed on a hot-plate apparatus. In order to measure thermal pain, the temperature of the hot plate surface was set to 52° C. The reaction latency as well as the time between when the animals were placed and the onset of paw-licking or jumping behaviors were measured in seconds(s). To minimize tissue damage, a cut-off time of 40 s was adopted (Moureq et al. Alleviation of cisplatin-induced neuropathic pain, neuronal apoptosis, and systemic inflammation in mice by rapamycin., Frontiers in Aging Neuroscience., 14, 2022).

[6] = test system: IL-6; experiment: Inhibition of IL-6 in LPS induced RAW 264.7 macrophages (ELISA); details: RAW 264.7, LPS 100 ng/mL; FIG. 3A-3D
Procedure: as §4
RAW 264.7 (5×10^5 cells/well) macrophage cells were induced with LPS (100 ng/mL) along with or without different concentrations of Samples. The supernatants were used for IL6 estimation using ELISA kits as per the manufacturer's instruction (R&D Systems, Minneapolis, Minnesota, USA).

[7] = test system: Ovalbumin Induced Respiratory Allergy; experiment: Evaluation of nasal symptoms, ovalbumin induced respiratory allergy; details: BCP 10, PEA 3, BPE 10, BPB 30 mg/kg; for Nasal Redness Score: score 0—normal, 1—faint, 2—medium, 3—dark
Procedure: BALB/c mice (20-30 g body weight) were housed under standard laboratory conditions (temperature 23.5° C., humidity=58-64%), with 12 h light and 12 h dark cycle, fed with normal diet and water ad libitum. […] The number of animals used in each group is 6.
(§5) Control animals were administered with 2% Gum acacia in PBS. All the animals except in Group I were actively sensitized by an intraperitoneal (i.p.) injection of OVA (20 μg/kg body weight) and Aluminum hydroxide (2 mg/kg body weight) in PBS on 0 and 14th day and were challenged with 1% OVA in PBS on 21st, 22nd, and 23rd using Nebulizer for 1 hour. The treatment drugs and standard drug were administered orally for 5 days (18th to 23rd day).
On day 21, 22 and 23 nasal symptoms were evaluated within a 10-minute period after the OVA challenge. […] Sneezing is characterized by an explosive expiration just after a deep inspiration and nose rubbing is characterized by an external perinasal scratch with either one or both forelimbs of animal. Another parameter that was evaluated was redness of the nose (FIG. 13) was by observing the intensity in redness of nostrils and scoring them as the following: 0—normal, 1—faint, 2—medium, and 3—dark.

[8] = test system: Human epidermal keratinocyte cells (HaCaT); experiment: Inhibition of intracellular calcium (H2O2 stimulated, Fluo-8AM); type: cell-based; details: samples pre-treated 2 hours, 10 mM H2O2 30 mins, FIG. 1A-1D, combination ratio 1:1:0.3
Procedure: Various environmental stimuli or neurotransmitters often cause changes in intracellular calcium concentration in the skin. Keratinocytes, primary cell type found in the outermost layer of the skin. Epidermal keratinocytes express functional sensory receptors, such as TRPV1, TRPV3, and TRPV4. Pain stimulus increases intracellular calcium through TRPV channels. Hydrogen peroxide mediated calcium stimulation was tested. Human epidermal keratinocyte cells (HaCaT) (5×10^4) were seeded in 96 black well plate for overnight. Samples were Pre-treated for 2 hours in 1% DMEM. Cells were stimulated with 10 mM H2O2 for 30 mins, and Fluo-8AM dye was added (HBBS buffer) for 1 hr. After incubation, cells were washed with PBS twice and the fluorescence was measured at the Ex/Em of 485/520 nm.

[9] = test system: Ovalbumin Induced Respiratory Allergy; experiment: Bronchoalveolar lavage fluid (BALF) cell count, ovalbumin induced respiratory allergy; details: BCP 10, PEA 3, BPE 10, BPB 30 mg/kg; for Differential Count, PMN - E / Differential Count, PMN - N / Differential Count, Lymphocytes / Differential Count, Macrophages: BALF; for Differential Count, PMN - E: eosinophil, control 0.50, OVA 1.67; for Differential Count, PMN - N: neutrophil, control 1.00, OVA 5.33; for Differential Count, Lymphocytes: control 1.83, OVA 12.00; for Differential Count, Macrophages: control 3.33, OVA 25.17; for Cellular Count (total cell count of BALF): control 6.93, OVA 44.17
Procedure: BALB/c mice (20-30 g body weight) were housed under standard laboratory conditions (temperature 23.5° C., humidity=58-64%), with 12 h light and 12 h dark cycle, fed with normal diet and water ad libitum.
as §5
On day 25, 48 h after final OVA challenge (saline challenge for normal control group), the animals were anesthetized for collection of blood and Bronchoalveolar Lavage (BAL) fluid for biochemical evaluation.
On the day of sacrifice mice were anesthetized, the lungs were gently lavaged three times via the tracheal tube with a volume of 0.7 ml phosphate buffered saline (PBS). BALF was immediately centrifuged at 1500 rpm for 5 min, and the collected supernatant was stored at −70° C. until further analysis. The cell pellet was analysed to determine the total cell count of BALF (Table 9, FIG. 14) and the count of Macrophages, neutrophil, eosinophil, and lymphocyte (Table 10, FIG. 15) counts using a hematology analyzer in BALF fluids.

[10] = test system: Ovalbumin Induced Respiratory Allergy; experiment: Organ weight determination, ovalbumin induced respiratory allergy; type: in vivo, BALB/c mice; details: for organ weight (in words): compared OVA control, FIG. 10, Table 5; for Organ weight, Spleen / Organ weight, Lungs: mean, BCP 10 mg/kg, PEA 3 mg/kg, BPE 10 mg/kg, BPB 30 mg/kg oral 5 days; for Organ weight, Spleen: control 0.26, OVA 0.80; for Organ weight, Lungs: control 0.65, OVA 1.08
Description: It is widely known that lungs and spleen weight increase during allergy.

[11] = test system: TRPV1; experiment: TRPV1 expression in spinal tissue lysate (Western blotting); type: in vivo, C57BL/6 mice; details: normalized to GAPDH, cisplatin = 1, control 0.3, BCP 10 mg, PEA 5 mg, BPE 10 mg, BPB 15 mg, Ibuprofen 30 mg, oral 21 days
Procedure: as §1

[12] = test system: Mouse mast cells P815; experiment: Inhibition of histamine release from C48/80 activated mast cells; type: cell-based; details: P815, 80 μg/ml C48/80, 30 min; FIG. 4A-4D
Procedure: Reaction was terminated by placing the cells on ice for 10 mins and centrifuged for 5 minutes at 2400 rpm. 100 μL of cell supernatant was mixed with 50 μL of 4N NaOH and 10 μL of O-Phthaldialdehyde (OPT, 1 mg·mL-1 in methanol, Sigma). By incubation at room temperature for 10 min, 50 μL of 1N HCl was added to stop the reaction. The fluorescence was measured at Ex/Em of 390/460 nm using a microplate reader (FLOUSTAR).

[13] = test system: Interleukin-1β (IL-1β); experiment: IL-1β in spinal fluids, cisplatin induced peripheral neuropathy (ELISA); details: cisplatin mice, oral 21 days, FIG. 6
Procedure: as §2, §3

[14] = day 21, 10-minute period after OVA challenge, OVA 6.00
[15] = day 21, 10-minute period after OVA challenge, OVA 88.67
[16] = day 22, 10-minute period after OVA challenge, OVA 5.50
[17] = day 22, 10-minute period after OVA challenge, OVA 82.17
[18] = day 23, 10-minute period after OVA challenge, OVA 4.00
[19] = day 23, 10-minute period after OVA challenge, OVA 83.17

Row | Compound | Cox 2 expression (fold change w.r.t cisplatin group) [1] | Tail Flick test Mean Diff., Cisplatin vs. treatment (Tukey's multiple comparisons test) [4] | Hot plate test Mean Diff., Cisplatin vs. treatment (Tukey's multiple comparisons test) [5] | inhibition of IL6 induced by LPS [6] | Number of Sneezing [7, 14] | Nose rubbing [7, 15] | Number of Sneezing [7, 16] | Nose rubbing [7, 17] | Nasal Redness Score ([7]; day 22, OVA 2.17) | Number of Sneezing [7, 18] | Nose rubbing [7, 19] | Nasal Redness Score ([7]; day 23, OVA 1.17) | inhibition of intracellular calcium levels [8] | Differential Count, PMN - E [9] | Differential Count, PMN - N [9] | Differential Count, Lymphocytes [9] | Differential Count, Macrophages [9] | Cellular Count (total cell count of BALF) [9] | organ weight (in words) [10] | Organ weight, Spleen [10] | further results
1 | C=C1CC/C=C(\C)CC[C@@H]2[C@@H]1CC2(C)C [BCP, β-Caryophyllene] | 0.8 | −3.125 | −12.13 | lower activity | 3.33 | 52.83 | 2.67 | 51.33 | 0.67 | 1.50 | 52.83 | 0.17 | showed inhibition of intracellular calcium levels | 1.50 | 1.50 | 4.17 | 11.00 | 18.17 | showed decrease in organ weight | 0.51 | inhibition of tumor necrosis factor-α (TNF-α) [2]: showed inhibition; inhibition of nitric oxide levels [3]: showed inhibition of nitric oxide levels; Organ weight, Lungs [10]: 0.76; TRPV1 expression (fold change w.r.t cisplatin group) [11]: 0.1; inhibition of histamine release from mast cells [12]: dose dependent inhibition of histamine release from mast cells; inhibition of Interleukin-1β (IL-1β) [13]: showed inhibition
2 | CCCCCCCCCCCCCCCC(=O)NCCO [PEA, Palmitoylethanolamide] | 0.3 | −4.167 | −5.958 | dose dependent inhibition of IL6 induced by LPS | 2.60 | 66.40 | 2.80 | 58.40 | 1.00 | 3.00 | 66.40 | 0.80 | showed inhibition of intracellular calcium levels | 1.20 | 1.80 | 2.80 | 5.00 | 10.80 | showed decrease in organ weight | 0.50 | Organ weight, Lungs [10]: 0.83; TRPV1 expression (fold change w.r.t cisplatin group) [11]: 2.8; inhibition of histamine release from mast cells [12]: lower activity
